# Test results from BindingDB's records for doi:10.1080/14756360109162353 (Cardiff University, 2001).
# “And” between values parts separate entries of the source, which are not always exact repeats. Identical values can stand only once.
# Biological target: T1, 17-beta-hydroxysteroid dehydrogenase type 3 (Homo sapiens, UniProt P37058)
# T1 sequence (P37058 whole entry): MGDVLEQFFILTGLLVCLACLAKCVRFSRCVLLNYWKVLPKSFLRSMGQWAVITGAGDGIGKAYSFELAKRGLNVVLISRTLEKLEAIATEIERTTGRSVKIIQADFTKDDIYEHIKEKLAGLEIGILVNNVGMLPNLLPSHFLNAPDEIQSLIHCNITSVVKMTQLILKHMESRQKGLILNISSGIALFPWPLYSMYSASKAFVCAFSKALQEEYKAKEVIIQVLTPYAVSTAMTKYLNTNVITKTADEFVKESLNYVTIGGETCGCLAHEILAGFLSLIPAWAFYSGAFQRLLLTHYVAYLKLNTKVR
# Experiment: Inhibition Assay
# Conditions: pH 7.45; 37 °C
# From the text: Inhibition assay of human testes mcrosomal 17 beta-hydroxysteroid dehydrogenase for the reduction of androstenedione.
row,SMILES,IC50
1,O=c1c(-c2ccc(O)cc2)coc2cc(O)cc(O)c12 [Prunetol],30.3 µM
2,"Oc1ccc(O)c(-c2ccccc2)c1 [2-Phenylhydroquinone, 7]",14.8 µM
3,"O=C1C=CC(=O)C(c2ccccc2)=C1 [2-phenylcyclohexa-2,5-diene-1,4-dione]",5.7 µM
4,"CCN(CC)CCOc1ccc(/C(=C(\Cl)c2ccccc2)c2ccccc2)cc1 [2-[4-[(Z)-2-chloranyl-1,2-diphenyl-ethenyl]phenoxy]-N,N-diethyl-ethanamine;2-oxidanylpropane-1,2,3-tricarboxylic acid]",76.2 µM
5,"C#CCC1(C(=O)OC(=C(c2ccccc2)c2ccccc2)c2ccccc2)CC(=O)NC1=O (stereo not drawn) [17Beta-HSD Inhibitor, 3]",9.15 µM
6,"O=c1c(O)c(-c2ccc(O)c(O)c2)oc2cc(O)ccc12 [2-(3,4-dihydroxyphenyl)-3,7-dihydroxy-chromen-4-one]",32.4 µM
7,O=c1c(O)c(-c2cc(O)c(O)c(O)c2)oc2cc(O)cc(O)c12,100 µM
8,"O=c1cc(-c2ccc(O)cc2)oc2cc(O)cc(O)c12 [Naringenin, 18]",21.3 µM and 16.4 µM
9,"COc1ccc(-c2coc3cc(O)cc(O)c3c2=O)cc1 [5,7-dihydroxy-3-(4-methoxyphenyl)-4H-chromen-4-one]",10.8 µM
10,O=c1cc(-c2ccccc2)oc2ccc(O)cc12 [6-hydroxy-2-phenyl-4H-chromen-4-one],16.4 µM
